The assay concerns the target MAP kinase-activated protein kinase 2 (Homo sapiens, UniProt P49137). The experiment in a line: Mass Spectrometry Assay: Compounds I-1 through I-50 of the invention were assayed in a mass spectrometric assay to measure their ability to covalently modify MK2 protein. The procedure for this assay follows. Intact MK2 protein (Invitrogen, Cat. No. PR5320A) was incubated for 60 minutes at room temperature with a 10-fold excess of test compound to protein. Aliquots of the resulting mixture (6 μL ….
MAP kinase-activated protein kinase 2, sequence (P49137 whole entry): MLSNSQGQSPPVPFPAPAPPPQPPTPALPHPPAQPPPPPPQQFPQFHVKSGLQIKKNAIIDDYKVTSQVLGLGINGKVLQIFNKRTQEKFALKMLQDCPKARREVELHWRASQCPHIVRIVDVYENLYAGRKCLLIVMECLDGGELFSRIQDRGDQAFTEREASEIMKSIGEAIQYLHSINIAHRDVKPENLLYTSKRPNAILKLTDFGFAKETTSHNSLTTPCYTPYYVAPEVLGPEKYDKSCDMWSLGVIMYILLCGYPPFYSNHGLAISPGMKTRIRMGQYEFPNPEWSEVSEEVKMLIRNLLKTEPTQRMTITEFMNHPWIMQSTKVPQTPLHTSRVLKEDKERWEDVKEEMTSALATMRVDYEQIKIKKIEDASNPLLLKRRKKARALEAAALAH
Regarding `CN(C)C[C@@H]1CNc2c(sc3ccc4nc(Nc5cc(F)ncn5)ccc4c23)C(=O)N1`, the IC50 is more than 1000 nM. On to `C[C@@H]1CNc2c(sc3ccc4nc(Nc5nc(Cl)ncc5C(=O)NC5COC5)ccc4c23)C(=O)N1`, for which the IC50 was less than 100 nM. The figure for `C[C@@H]1CNc2c(sc3ccc4nc(Nc5nccc(Cl)n5)ccc4c23)C(=O)N1` is more than 1000 nM. To `C[C@@H]1CNc2c(sc3ccc4nc(Nc5nc(Cl)ncc5C(=O)NC5CC5)ccc4c23)C(=O)N1` belongs less than 100 nM. To `C[C@@H]1CNc2c(sc3ccc4nc(Nc5nc(Cl)ncc5C(=O)NC5CCN(C)CC5)ccc4c23)C(=O)N1` belongs less than 100 nM; to `C[C@@H]1CNc2c(sc3ccc4nc(Oc5cc(CNC(C)(C)C)nc(Cl)n5)ccc4c23)C(=O)N1`, less than 100 nM.

What is called IC50 is the concentration at which inhibition is half-maximal.

The values are drawn from ChEMBL document CHEMBL5726510, “MK2 inhibitors and uses thereof” (2017).
